Laboratory results taken from the NIST ThermoML archive (doi:10.1016/j.jct.2016.06.016).

Experiment: xn = mol fraction of the nth substance listed
Conditions: 100 kPa, Liquid; for viscosity: Concentric cylinders viscometry; for mass density: Vibrating tube method

CCOC(=O)CCC(=O)OCC [diethyl butanedioate] + CCCCCCO
Conditions | mass density, 288.15 K [kg/m3] | mass density, 293.15 K [kg/m3] | mass density, 298.15 K [kg/m3] | mass density, 303.15 K [kg/m3] | viscosity, 288.15 K [mPa·s] | viscosity, 293.15 K [mPa·s] | viscosity, 298.15 K [mPa·s] | viscosity, 303.15 K [mPa·s]
x1 = 0.0999 | 849.53 | 845.73 | 841.91 | 838.07 | 4.539 | 3.876 | 3.358 | 2.932
x1 = 0.2 | 875.7 | 871.67 | 867.63 | 863.58 | 3.729 | 3.213 | 2.817 | 2.477
x1 = 0.3001 | 900.45 | 896.23 | 891.99 | 887.75 | 3.285 | 2.842 | 2.508 | 2.222
x1 = 0.4 | 923.97 | 919.56 | 915.15 | 910.73 | 3.019 | 2.62 | 2.327 | 2.071
x1 = 0.4999 | 946.39 | 941.82 | 937.24 | 932.67 | 2.869 | 2.495 | 2.231 | 1.99
x1 = 0.6 | 967.72 | 963 | 958.28 | 953.56 | 2.789 | 2.432 | 2.18 | 1.952
x1 = 0.7002 | 988.27 | 983.42 | 978.57 | 973.72 | 2.788 | 2.435 | 2.188 | 1.962
x1 = 0.7999 | 1007.86 | 1002.88 | 997.91 | 992.94 | 2.856 | 2.495 | 2.24 | 2.01
x1 = 0.9 | 1026.75 | 1021.66 | 1016.57 | 1011.5 | 2.954 | 2.61 | 2.337 | 2.098
x1 = 1 | 1044.83 | 1039.63 | 1034.44 | 1029.25 | 3.195 | 2.807 | 2.491 | 2.229
